Counter-ions that a name gives are not always drawn. Like-named read-outs stand apart in the source and are kept apart here.
Columns and labels:
[1] = Pharmacokinetics of Compound 141 in male Wistar rats, intravenous and oral; type: in vivo; conditions: for MRT last: read-out: MRT(0-t); for MRT inf: read-out: MRT(0-∞)
Procedure: For intravenous administration, blood samples were collected via retro-orbital puncture into heparinized tubes at pre-dose and 0.083, 0.25, 0.5, 1, 2, 6, 8, and 24 hours (hr) post-dose.
For oral administration, blood samples were collected at following time points: 0, 0.167, 0.417, 0.75, 1, 2, 4, 6, 8, and 24 hr. After sample collection, plasma samples were stored at −20° C. until bioanalysis. Concentrations of 72(+) and 72(−) in plasma samples were determined using a high performance liquid chromatography/mass spectrometry (HPLC/MS/MS) method.
*F(%)=(Doseiv×AUCoral(0-t))/(Doseoral×AUCiv(0-t))×100%. […]
The pharmacokinetic profile and bioavailability of Compound 141 (phosphate salt of Compound 127) in male Wistar rats following single intravenous (iv) and oral administration (p.o.) were measured according to the procedures of Example 4 and are summarized in Table 11. The pharmacokinetic profile of Compound 162 in male Golden Syrian masters following oral administration (pox) is summarized in Table 12.

[2] = system: LDLR ligand uptake activity in HepG2 cells; test: DiI-LDL uptake in HepG2 cells (Example 6); type: cell-based, human; conditions: 20 hours, A, compound dose ≦10 μM; further: key: +: slightly increased fluorescent intensity over control; ++: modestly increased fluorescent intensity over control; +++: strongly increased fluorescent intensity over control
Procedure: HepG2 cells (2×10^5 cells/well) in 24-well culture plates were treated with various compounds at indicated concentrations for 20 hours. The fluorescent 1.1′-dioctadecyl-3,3,3′,3′-tetramethylindocarbocyanin perchlorate (DiI-LDL) (Biomedical Technologies, Stoughton, Mass.) at a concentration of 2 μg/mL was added to cells at the end of treatment. After 4 hours, the medium was removed, cells were washed with cold PBS, and were examined immediately under a fluorescent microscope (Nikon) at 200× amplification. The fluorescent intensity in compound-treated cells was compared to that in untreated control cells. […] In these experiments berberine chloride was used for comparison.

[3] = system: LDLR mRNA expression in HepG2 cells; test: LDLR mRNA expression in HepG2 cells, quantitative real-time RT-PCR (Example 7); type: cell-based, human; conditions: dose less than or equal to 10 μM, 24 hours
Procedure: In yet another experiment, HepG2 cells were treated with various compounds for 24 hours at the indicated doses. Total RNA was isolated and 2 μg was used to generate cDNA in a reaction containing random primers and M-MLV at 37° C. for 1 hour in a volume of 25 μL. Real-time PCR was performed on the cDNA using MCEP REALPLEX 2 SYSTEM (Eppendorf) and Universal MasterMix (Applied Biosystems). Human LDLR and GAPDH Pre-Developed TaqMan Assay Reagents (Applied Biosystems) were used to assess the levels of mRNA expressions in HepG2. The levels of LDLR mRNA were normalized to that of GAPDH. Each RNA samples was assayed in triplicate. The abundance of LDLR mRNA in untreated cells was defined as 1, and the amounts of LDLR mRNA from compound-treated cells were plotted relative to that value in FIG. 2B. The data shown are mean±s.d.
Activities of some compounds of Formulas I, II and EE on LDLR mRNA expression were determined. HepG2 cells were treated with new compounds individually at a dose less than or equal to 10 μM for 24 hours. […] In these experiments, berberine chloride was included for comparison.

[4] = system: LDL ligand uptake activity in HepG2 cells; test: DiI-LDL uptake in HepG2 cells (Example 12); type: cell-based, human
Procedure: The combined beneficial effects of these novel compounds on elevation of LDLR mRNA levels likely through the mechanism of mRNA stabilization and their inhibitory activity towards PCSK9, the secreted protease that degrades LDLR protein, result in strong increases in LDL ligand uptake activity through increased receptor surface abundance. […] Briefly, HepG2 cells (2×10^5 cells/well) in 24-well culture plates were treated with various compounds at 10 and 40 uM concentrations for 20 hours. The fluorescent 1.1′-dioctadecyl-3,3,3′,3′-tetramethylindocarbocyanin perchlorate (DiI-LDL) (Biomedical Technologies, Stoughton, Mass.) at a concentration of 2 μg/ml was added to cells at the end of treatment. After 4 hours, the medium was removed; cells were washed with cold PBS, and were examined immediately under a fluorescent microscope (Nikon) at 200× amplification. The fluorescent intensity in compound-treated cells was compared to that in untreated control cells. […]

[5] = system: LDLR mRNA expression in HepG2 cells; test: LDLR mRNA expression in HepG2 cells, quantitative real-time RT-PCR (Example 12); type: cell-based, human; conditions: Homo sapiens, 24 hours; for fold induction at 10 µM: read-out: Activity on LDLR mRNA at 10 uM (fold of control); for fold induction at 40 µM: read-out: Activity on LDLR mRNA at 40 uM (fold of control)
Procedure: (§1) The effects of compounds on the mRNA expressions of LDLR and PCSK9 were examined using quantitative real-time RT-PCR assays. HepG2 cells were treated with various compounds at 10 and 40 uM concentrations for 24 hours. Total RNA was isolated and […] was used to generate cDNA in a reaction containing random primers and M-MLV at 37° C. for 1 h in a volume of 25 μL. Real-time PCR was performed on the cDNA using MCEP REALPLEX 2 SYSTEM (Eppendorf) and Universal MasterMix (Applied Biosystems). Human LDLR, PCSK9, and GAPDH Pre-Developed TaqMan Assay Reagents (Applied Biosystems) were used to assess the levels of mRNA expressions in HepG2. The levels of LDLR and PCSK9 mRNA were normalized to that of GAPDH. Each RNA samples was assayed in duplicate. The fold activity was calculated by dividing mRNA abundance in compound treated cells with that of control.

[6] = system: PCSK9 mRNA expression in HepG2 cells; test: PCSK9 mRNA expression in HepG2 cells, quantitative real-time RT-PCR (Example 12); type: cell-based, human; conditions: 24 hours
Procedure: as §1

[7] = Wistar, rat, plasma, male rats, IV (2 mg/kg), mean
[8] = Wistar, rat, plasma, male rats, PO (10 mg/kg), mean
[9] = 10 uM, 20 hours (first symbol of cell)
[10] = 40 uM, 20 hours (second symbol of cell)

COc1cc2c(cc1OC)C1Cc3ccc(OC)c(OS(=O)(=O)c4cccc(F)c4)c3CN1CC2 (racemic) [Compound 141, 2,3,10-Trimethoxy-5,6,7,8,13,13a-hexahydroisoquinolino[2,1-b]isoquinolin-9-yl 3-fluorobenzenesulfonate phosphate Salt]
AUC(0-inf) [1, 7]: 1080 ng·h/mL
AUC(0-t) [1, 7]: 1070 ng·h/mL
Cmax [1, 7]: 1550 ng/mL
Tmax [1, 7]: 0.083 h
MRT last [1, 7]: 1.46 h
MRT inf [1, 7]: 1.62 h
Vd ([1]; Wistar, rat, plasma, male rats, IV (2 mg/kg), mean, read-out: Vz): 8.31 L/kg
AUC(0-inf) [1, 8]: 3380 ng·h/mL
AUC(0-t) [1, 8]: 3360 ng·h/mL
Cmax [1, 8]: 826 ng/mL
Tmax [1, 8]: 0.33 h
MRT last [1, 8]: 4.25 h
MRT inf [1, 8]: 4.44 h
pharmacokinetic properties and bioavailability, in words ([1]; male Wistar rats, iv and p.o.): excellent pharmacokinetic properties and good bioavailability
CLz ([1]; male rats, IV (2 mg/kg), mean): 31.2 mL/min/kg
t1/2z ([1]; male rats, IV (2 mg/kg), mean): 3.16 h
F* ([1]; male rats, PO (10 mg/kg) vs IV (2 mg/kg), mean): 62.75%
t1/2z ([1]; male rats, PO (10 mg/kg), mean): 3.62 h

COc1ccc2c(c1OC)CN1CCc3cc4c(cc3C1C2Cc1ccccc1)OCO4 (stereo not shown) [Compound 1, 9,10-dimethoxy-13-benzyl-5,6,7,8,13,13a-hexahydro-2H-1,3-dioxolano[4,5-g]isoquinolino[3,2-a]isoquinoline]
Activity on DiI-LDL uptake [2]: +
Activity on LDLR mRNA expression (Fold of control) [3]: 1.56 ± 0.86 Fold of control

COc1ccc2c(c1OCc1ccccc1[N+](=O)[O-])CN1CCc3cc4c(cc3C1C2)OCO4 (stereo not shown) [Compound 26, 10-methoxy-9-[(2-nitrophenyl)methoxy]-5,6,7,8,13,13a-hexahydro-2H-1,3-dioxolano[4,5-g]isoquinolino[3,2-a]isoquinoline]
Activity on DiI-LDL uptake [2]: ++
Activity on LDLR mRNA expression (Fold of control) [3]: 1.29 ± 0.10 Fold of control

COc1ccc2c(c1OC)C(CC(C)=O)N1CCc3cc4c(cc3C1=C2)OCO4 (stereo not shown) [Compound 30, 1-(9,10-dimethoxy-5,6,7,8-tetrahydro-2H-1,3-dioxolano[4,5-g]isoquinolino[3,2-a]isoquinolin-8-yl)acetone]
Activity on DiI-LDL uptake [2]: +
Activity on LDLR mRNA expression (Fold of control) [3]: 1.47 ± 0.13 Fold of control

COc1ccc2c(c1O)CN1CCc3cc4c(cc3C1C2)OCO4 (stereo not shown) [Compound 34, 10-methoxy-5,6,7,8,13,13a-hexahydro-2H-1,3-dioxolano[4,5-g]isoquinolino[3,2-a]isoquinoline-9-ol]
Activity on DiI-LDL uptake [2]: ++
Activity on LDLR mRNA expression (Fold of control) [3]: 1.76 ± 0.17 Fold of control

COc1cc2c(cc1C(=O)NCCO)C1Cc3ccc(OC)c(OS(=O)(=O)c4ccccc4)c3CN1CC2 (stereo not shown) [Compound 137, 2-[N-(2-hydroxyethyl)carbamoyl]-3,10-dimethoxy-5,6,7,8,13,13a-hexahydroisoquinolino[2,1-b]isoquinolin-9-yl benzenesulfonate]
Activity in LDL uptake (relative to control) [4, 9]: +
Activity in LDL uptake (relative to control) [4, 10]: +++
fold induction at 10 µM [5]: 1.61 ± 0.19
fold induction at 40 µM [5]: 2.66 ± 0.04
PCSK9 mRNA level at 10 uM (fold of control) [6]: 0.45 ± 0.06 fold of control
Activity on PCSK9 mRNA reduction at 40 uM (fold of control) [6]: 0.34 ± 0.00 fold of control

COc1cc2c(cc1OCCO)CCN1Cc3c(ccc(OC)c3OS(=O)(=O)c3ccccc3)CC21 (stereo not shown) [Compound 138, 3-(2-Hydroxyethoxy)-2,10-dimethoxy-5,6,7,8,13,13a-hexahydroisoquinolino[2,1-b]isoquinolin-9-yl benzenesulfonate]
Activity in LDL uptake (relative to control) [4, 9]: +
Activity in LDL uptake (relative to control) [4, 10]: +++
fold induction at 10 µM [5]: 1.6 ± 0.29
fold induction at 40 µM [5]: 2.45 ± 0.2
PCSK9 mRNA level at 10 uM (fold of control) [6]: 0.63 ± 0.14 fold of control
Activity on PCSK9 mRNA reduction at 40 uM (fold of control) [6]: 0.35 ± 0.02 fold of control

COc1cc2c(cc1OC)C1C(C)c3ccc(OC)c(OS(=O)(=O)c4ccccc4)c3CN1CC2 (stereo not shown) [Compound 139, 2,3,10-Trimethoxy-13-methyl-5,6,7,8,13,13a-hexahydro isoquinolino[2,1-b]isoquinolin-9-yl benzenesulfonate]
Activity in LDL uptake (relative to control) [4, 9]: ++/++
Activity in LDL uptake (relative to control) [4, 10]: ++/++
fold induction at 10 µM [5]: 11.5 ± 1.29
fold induction at 40 µM [5]: 3.02 ± 0.34
PCSK9 mRNA level at 10 uM (fold of control) [6]: 0.46 ± 0.04 fold of control
Activity on PCSK9 mRNA reduction at 40 uM (fold of control) [6]: 0.27 ± 0.02 fold of control

COc1ccc2c(c1)CCN1Cc3c(ccc(OC)c3OS(=O)(=O)c3ccccc3)C(C)C21 (stereo not shown) [Compound 140, 3,10-Dimethoxy-13-methyl-5,6,7,8,13,13a-hexahydro isoquinolino[2,1-b]isoquinolin-9-yl benzenesulfonate]
Activity in LDL uptake (relative to control) [4, 9]: ++/++
Activity in LDL uptake (relative to control) [4, 10]: ++/++
fold induction at 10 µM [5]: 6.65 ± 0.68
fold induction at 40 µM [5]: 8.6 ± 2
PCSK9 mRNA level at 10 uM (fold of control) [6]: 0.43 ± 0.08 fold of control
Activity on PCSK9 mRNA reduction at 40 uM (fold of control) [6]: 0.51 ± 0.08 fold of control

COc1ccc2c(c1OS(=O)(=O)c1ccccc1)CN1CCc3cc(OCCO)ccc3C1C2 (stereo not shown) [Compound 142, 3-(2-Hydroxyethoxy)-10-methoxy-5,6,7,8,13,13a-hexahydroisoquinolino[2,1-b]isoquinolin-9-yl benzenesulfonate]
Activity in LDL uptake (relative to control) [4, 9]: +
Activity in LDL uptake (relative to control) [4, 10]: ++
fold induction at 10 µM [5]: 2.64 ± 0.01
fold induction at 40 µM [5]: 13 ± 1.96
PCSK9 mRNA level at 10 uM (fold of control) [6]: 0.62 ± 0.07 fold of control
Activity on PCSK9 mRNA reduction at 40 uM (fold of control) [6]: 0.52 ± 0.02 fold of control

COc1cc2c(cc1OCCO)C1Cc3ccc(OC)c(OS(=O)(=O)c4ccccc4)c3CN1CC2 (stereo not shown) [Compound 143, 2-(2-hydroxyethoxy)-3,10-dimethoxy-5,6,7,8,13,13a-hexahydroisoquinolino[2,1-b]isoquinolin-9-yl benzenesulfonate]
Activity in LDL uptake (relative to control) [4, 10]: ++
fold induction at 10 µM [5]: 1.87 ± 0.03
fold induction at 40 µM [5]: 15 ± 1.68
PCSK9 mRNA level at 10 uM (fold of control) [6]: 1.09 ± 0.09 fold of control
Activity on PCSK9 mRNA reduction at 40 uM (fold of control) [6]: 0.48 ± 0.06 fold of control

From US20110009628A1, “Compounds and Compositions for Modulating Lipid Levels and Methods of Preparing Same” (priority 2009, published 2011)
